Source: patent US12622925B2 (priority 2018, dated 2026)

Tested on: Hydra vulgaris
Type: in vivo
Settings: results in 100% hydra mortality in 92 h
Description: Hydra vulgaris were obtained from Environment Canada (Montreal, Qc) and maintained at 18° C. The hydra classification method (Wilby, O. K., Tesh, J. M., & Shore, P. R., 1990) was used with modification to rate morphology of the adult hydra as an indicator of solution toxicity. In this assay, the scoring of hydra morphology is objective and repeatable with representation in detail in previous literature. The assay included monitoring times at shorter intervals during the first two days (0, 4, 20, and 28 h) and 24 h intervals for the last three days (44, 68, and 92 h). Solutions were not changed during testing. The hydra morphological response was scored and recorded after exposure of toxin with and without sorbent treatment. Mature and non-budding hydra in similar sizes were chosen for testing in order to minimize differences between samples. Controls for this experiment included hydra media. […] The score or average toxicity rating was determined by calculating the average score for morphological changes for a certain group at a specific time point.
FIG. 2 is a depiction of the hydra morphology scale by Wilby (1988): The scale is graded from 0-10, where 10 represents a normal living hydra and 0 represents a disintegrated hydra. The physiologic conditions of hydra were assessed with a dissecting microscope.

C[C@H]1CCCC(=O)CCC/C=C/c2cc(O)cc(O)c2C(=O)O1 [ZEN, zearalenone]
minimal effective concentration (MEC): 4 ppm
